“Also recorded” adds a separate entry of the source. Peptide text beside a SMILES is read from it.
Key:
[1] = Time to exhaustion test on cycle ergometer at 75% VO2 max after dehydration and rehydration; assay type: in vivo, human
Excerpt: (§1) On four of the five subsequent visits to the HPL, subjects dehydrated to 2.5% of their baseline body mass. On the occasion that a dehydration protocol was not employed, subjects reported to the HPL in a euhydrated state to provide a baseline blood draw and perform the exercise protocol. This trial (T1) provided baseline performance data for how subjects performed in optimal conditions without hydration stress. All performance comparisons were made to this trial. In one trial (T2) subjects achieved their goal weight (−2.5% of baseline body weight) and rested in a recumbent position for 45 minutes before commencing the exercise session. In the subsequent three trials subjects reached their goal weight (−2.5% of baseline body mass) and then rehydrated to −1.5% of their baseline body mass by drinking either water (T3) or two different doses (T4 and T5) of the alanyl-glutamine (ALA-GLU) supplement (0.05 g·kg^−1 and 0.2 g·kg^−1, respectively). During the hydration trials (T3-T5), the exercise protocol began 45 minutes following reaching their goal weight. During this time frame, subjects were rehydrated. The order of the trials was randomly determined.
On the night before testing (5 p.m.), subjects reported to the HPL for weighing and urine specific gravity measures to ascertain that subjects were euhydrated. Subjects were then instructed to not consume any food or water until the next day when they reported back to the HPL (7 a.m.). […] On the morning of trials T2-T5, subjects reporting to the HPL were weighed and began the active dehydration protocol to achieve the desired weight loss. The active dehydration protocol required subjects to walk on a motorized treadmill at 3.4 mi·h^−1 and at a 2% incline. Subjects were fully clothed in a training suit (long cotton heavy weight fleece sweat pants and top). Nude body weight, heart rate, and rating of perceived exertion were monitored at 20-minute increments. […] At the end of the dehydration period, a urine specimen and blood samples were obtained. Dehydration was verified by measuring urine specific gravity and both urine and plasma osmolality. The time necessary to reach the goal body mass (−2.5% weight loss) was 62.5±44.2 min.
(§2) Subjects consumed the supplement or placebo (water) following the dehydration protocol as part of their rehydration to −1.5% of their baseline body mass. The L-alanyl-L-glutamine supplement (0.2 g·kg^−1 or 0.05 g·kg^−1) (Kyowa Hakko USA, New York, N.Y.) was mixed with water and was indistinguishable in appearance and taste from the placebo.
After dehydration and rehydration (except during trial T2), subjects began the exercise protocol. Subjects exercised at a workload that elicited 75% of their VO2 max on a cycle ergometer. Subjects were encouraged to give their best effort during each trial, and were verbally encouraged throughout each exercise trial. Oxygen consumption, minute ventilation, respiratory exchange ratio, and heart rate were measured continuously. Heart rate and blood pressure were recorded before and at the conclusion of exercise. Time to exhaustion was determined as the time that the subject could no longer maintain the workload and/or reach volitional exhaustion.

[2] = Plasma glutamine concentration during hydration stress and endurance exercise; assay type: in vivo, human
Excerpt: as §1, §2
A baseline (BL) blood draw occurred during T1. No other blood was drawn during that trial. The BL blood sample was drawn following a 15-min equilibration period prior to exercise. […]
Hemoglobin was analyzed in triplicate from whole blood using the cyanmethemoglobin method (Sigma Diagnostics, St. Louis, Mo.). Hematocrit was analyzed in triplicate from whole blood via microcentrifugation (IEC micro-MB centrifuge, Needham, Mass.) and microcapillary technique. Plasma volume shifts following the workout were calculated using the formula of Dill & Costill (1974). […]

Compound: C[C@H](N)C(=O)N[C@@H](CCC(N)=O)C(=O)O [alanyl-glutamine, L-alanyl-L-glutamine] (H-Ala-Gln-OH)
- Δ performance: time to exhaustion (difference to T1) ([1]; T4, 0.05 g·kg^−1, compared to T2 (dehydrated, no rehydration)): significantly greater times to exhaustion
- trend of inhibiting the decrease in duration of exercise endurance ([1]; T4, 0.05 g·kg^−1, compared to T3 (water only)): even more pronounced
- Δ performance: time to exhaustion (difference to T1) ([1]; T5, 0.2 g·kg^−1, compared to T2 (dehydrated, no rehydration)): significantly greater times to exhaustion
- trend of inhibiting the decrease in duration of exercise endurance ([1]; T5, 0.2 g·kg^−1, compared to T3 (water only)): even more pronounced
- effect on endurance ([1]; overall conclusion, independent of increases in plasma glutamine concentration): endurance enhancing effect
- Plasma glutamine concentration ([2]; T4, 0.05 g/kg, compared to T3 (water only)): No differences
- Plasma glutamine concentration ([2]; T5, 0.2 g·kg^−1, at RHY and IP, compared to T2-T4): significantly higher; also recorded: significantly increased
- AUC of plasma glutamine concentration ([2]; T5, 0.2 g·kg^−1, compared to the other experimental trials): significantly higher

Source: patent publication US10426813B2, “Method to enhance endurance” (KYOWA HAKKO BIO CO., LTD., priority 2009, dated 2019)
